Assay results taken from ChEMBL document CHEMBL1201862, “PubChem BioAssay data set” (2004).
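Briefly, cells in 96-well plates were exposed to five compound concentrations for 48 h, and endpoints were estimated by linear interpolation. GI50 = concentration required for 50% inhibition of growth.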 Active and inactive are the calls of the source. No stated cut-off is given here; in the data, active = GI50 up to about 1.1 µM and inactive = higher.

Columns and labels:
Assay in all cases: DTP human tumour cell line panel, 48 h
[1] = tested on: SNB-75
[2] = tested on: KM12
[3] = tested on: MDA-MB-435
[4] = tested on: UACC-257
[5] = tested on: SK-MEL-28
[6] = tested on: LOX IMVI
[7] = tested on: SF-268
[8] = tested on: HCT-116
[9] = tested on: PC-3
[10] = tested on: NCI-H226
[11] = tested on: UACC-62
[12] = tested on: HOP-62
[13] = tested on: SNB-19
[14] = tested on: UO-31
[15] = tested on: SN12C
[16] = tested on: DU-145
[17] = tested on: COLO 205
[18] = tested on: HL-60
[19] = tested on: SK-OV-3
[20] = tested on: T47D

SMILES | GI50 [1] | GI50 [2] | GI50 [3] | GI50 [4] | GI50 [5] | GI50 [6] | GI50 [7] | GI50 [8] | GI50 [9] | GI50 [10] | GI50 [11] | GI50 [12] | GI50 [13] | GI50 [14] | GI50 [15] | GI50 [16] | GI50 [17] | GI50 [18] | GI50 [19] | GI50 [20]
CC(=O)O/C(=C(/C#N)C(=O)O)C1C(C(=O)O)C(c2ccccc2[N+](=O)[O-])C=C(c2ccco2)N1c1ccncc1 (stereo not given) | 6.38 µM (inactive) | 1.48 µM (inactive) | 4.62 µM (inactive) | 3.9 µM (inactive) | 10.4 µM (inactive) | 1.91 µM (inactive) | 9.23 µM (inactive) | 1.52 µM (inactive) | 6.4 µM (inactive) | 4.63 µM (inactive) | 7.52 µM (inactive) | 7.82 µM (inactive) | 11.8 µM (inactive) | 2.87 µM (inactive) | 4.86 µM (inactive) | 8.49 µM (inactive) | 3.41 µM (inactive) | 2.75 µM (inactive) | 11.6 µM (inactive) | 6.73 µM (inactive)
CCOP1(=O)C=C(Sc2ccc([N+](=O)[O-])cc2[N+](=O)[O-])C(C)(C)O1 (stereo not given) | 19.8 µM (inactive) | 16.5 µM (inactive) | 11.4 µM (inactive) | 12.3 µM (inactive) | 16.2 µM (inactive) | 3.83 µM (inactive) | 17.6 µM (inactive) | 5.42 µM (inactive) | 11.9 µM (inactive) | 25.5 µM (inactive) | 11.5 µM (inactive) | 27.9 µM (inactive) | 27.6 µM (inactive) | 14.9 µM (inactive) | 10.3 µM (inactive) | 13.4 µM (inactive) | 10.5 µM (inactive) | 3.41 µM (inactive) | 27.2 µM (inactive) | 14.6 µM (inactive)
COc1ccc(C2C3=C(COC3=O)Oc3cc4c(cc32)OCO4)cc1OC (stereo not given) | 1.82 µM (inactive) | 0.301 µM (active) | 0.123 µM (active) | 6.87 µM (inactive) | 1.16 µM (inactive) | 0.65 µM (active) | 6.17 µM (inactive) | 0.465 µM (active) | 0.521 µM (active) | 4.65 µM (inactive) | 0.859 µM (active) | 1.44 µM (inactive) | 0.716 µM (active) | 3.73 µM (inactive) | 5.26 µM (inactive) | 1.81 µM (inactive) | 0.879 µM (active) | 0.208 µM (active) | 0.75 µM (active) | 10.1 µM (inactive)
CN(C)CCNC(=O)c1cc([N+](=O)[O-])ccn1 | > 100 µM (inactive) | 32.8 µM (inactive) | 19 µM (inactive) | 16.3 µM (inactive) | > 100 µM (inactive) | 30.1 µM (inactive) | 28.4 µM (inactive) | 24.8 µM (inactive) | 23.1 µM (inactive) | > 100 µM (inactive) | 19.2 µM (inactive) | 31.4 µM (inactive) | 33.6 µM (inactive) | > 100 µM (inactive) | 23.8 µM (inactive) | > 100 µM (inactive) | 13.4 µM (inactive) | 20.3 µM (inactive) | 70.3 µM (inactive) | 30.3 µM (inactive)
Nc1ccn(C=C=CCO)c(=O)n1 | > 93.8 µM (inactive) | > 100 µM (inactive) | > 100 µM (inactive) | > 100 µM (inactive) | > 100 µM (inactive) | > 100 µM (inactive) | > 100 µM (inactive) | > 100 µM (inactive) | > 100 µM (inactive) | > 100 µM (inactive) | > 100 µM (inactive) | > 100 µM (inactive) | > 100 µM (inactive) | > 100 µM (inactive) | > 100 µM (inactive) | > 100 µM (inactive) | > 100 µM (inactive) | 48.9 µM (inactive) | > 100 µM (inactive) | > 93.8 µM (inactive)
O=C(c1ccccc1)c1ccc2nc3n(c2c1)C(c1c(F)cccc1F)SC3 (stereo not given) | 4.17 µM (inactive) | 2.82 µM (inactive) | 1.45 µM (inactive) | 18.1 µM (inactive) | 22.3 µM (inactive) | 6.11 µM (inactive) | 9.66 µM (inactive) | 3.26 µM (inactive) | 6.89 µM (inactive) | 30.6 µM (inactive) | 4.47 µM (inactive) | 8.81 µM (inactive) | 4.98 µM (inactive) | 5.4 µM (inactive) | 7.69 µM (inactive) | 11.3 µM (inactive) | 4 µM (inactive) | 2.03 µM (inactive) | 4.1 µM (inactive) | 4.49 µM (inactive)
Oc1cc(Br)cc2cc(Br)cnc12 | 3.47 µM (inactive) | 5.38 µM (inactive) | 3.44 µM (inactive) | 3.21 µM (inactive) | 2.02 µM (inactive) | 0.661 µM (active) | 1.1 µM (active) | 2.11 µM (inactive) | 3.71 µM (inactive) | 15.3 µM (inactive) | 2.05 µM (inactive) | 12.3 µM (inactive) | 3.33 µM (inactive) | 2.99 µM (inactive) | 3.62 µM (inactive) | 3.68 µM (inactive) | 32.3 µM (inactive) | 0.22 µM (active) | 39.2 µM (inactive) | 2.8 µM (inactive)
C/C(=N\NC(=S)NCc1ccccc1)c1nc2cccnc2[nH]1 | 20.2 µM (inactive) | 6.34 µM (inactive) | 12.4 µM (inactive) | 9.62 µM (inactive) | 14.6 µM (inactive) | 6.12 µM (inactive) | 4.62 µM (inactive) | 3.69 µM (inactive) | 8.95 µM (inactive) | 4.44 µM (inactive) | 6.53 µM (inactive) | 6.85 µM (inactive) | 6.49 µM (inactive) | 1.94 µM (inactive) | 15.7 µM (inactive) | 4.84 µM (inactive) | 14.5 µM (inactive) | 3.71 µM (inactive) | 10.4 µM (inactive) | 9.1 µM (inactive)
COC(=O)c1sc2nc(Nc3ccccc3)/c(=N\c3ccccc3)sc2c1C | 25 µM (inactive) | > 100 µM (inactive) | > 100 µM (inactive) | > 100 µM (inactive) | > 100 µM (inactive) | > 100 µM (inactive) | 57.3 µM (inactive) | 51.8 µM (inactive) | > 100 µM (inactive) | > 100 µM (inactive) | 35.6 µM (inactive) | 49.8 µM (inactive) | 36.6 µM (inactive) | > 100 µM (inactive) | 92.9 µM (inactive) | > 100 µM (inactive) | > 100 µM (inactive) | > 100 µM (inactive) | 32.8 µM (inactive) | > 100 µM (inactive)
